Tests used:
[1] = target: T1, HRP-conjugated secondary antibody (Erk protein in C32 cell lysates) (Armoracia rusticana, UniProt P00433); assay: Western blot of Erk protein in C32 cell lysates, near-infrared chemifluorescence detection against chemiluminescent substrate; assay type: biochemical
T1 sequence (P00433 31-338): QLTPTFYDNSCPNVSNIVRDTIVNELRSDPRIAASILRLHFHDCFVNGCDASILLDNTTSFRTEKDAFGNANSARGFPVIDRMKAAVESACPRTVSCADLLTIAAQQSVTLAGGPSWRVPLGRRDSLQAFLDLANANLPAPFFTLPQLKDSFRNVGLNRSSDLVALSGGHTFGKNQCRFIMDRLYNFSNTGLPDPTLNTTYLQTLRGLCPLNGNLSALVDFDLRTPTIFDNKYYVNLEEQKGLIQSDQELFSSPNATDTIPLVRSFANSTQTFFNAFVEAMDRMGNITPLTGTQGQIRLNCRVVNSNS
Description: A series of tests were performed to determine the optimal concentration of PTA in the detection method. Western blot analysis was performed on cell lysates generated from the C32 cell line that expresses high levels of Erk protein. The lysates were processed according to standard western blotting protocols. Briefly, Erk protein was detected using a primary antibody against Erk (an anti-Erk monoclonal antibody) and an HRP-conjugated secondary antibody (goat anti-mouse IgG antibody). Different concentrations of the PTA substrate were compared by visualization of color formation and detection of protein bands. The limit of detection (LOD) was measured by chemifluorescence signal and compared to the LOD using Thermo Scientific™ SuperSignal™ West Femto Substrate. […] FIG. 5 illustrates the comparison and effect of PTA concentration on LOD of Erk protein in C32 cell lysates.
The exemplary formulation of the detection solution tested comprises two concentrated solutions: Solution A (a first part) and Solution B (a second part). […]
In this experiment Erk protein was detected in C32 cell lysates using a 1:1000 dilution of a monoclonal antibody directed to Erk. […] Near-infrared fluorescence from PTA treated blot was detected using the Odyssey® CLx system set at the 700 channel. Chemiluminescence from the control blot was detected using the Odyssey® Fc imaging system set at the chemiluminescence channel.

[2] = PTA solubility in water and in assay buffer with solubilizers (precipitate visualization, HPLC); assay type: physicochemical; conditions: for Appearance of solution: PTA in assay buffer (Tris buffer, pH 9.5) with the named solubilizer at the w/v concentration printed in the table; for Appearance of PTA solution after overnight storage at room temperature: PTA in assay buffer (Tris buffer, pH 9.5) with the named solubilizer
Description: Next, the solvent system for phenothiazine (PTA) was tested. […] The solubility of PTA with polymers was tested by precipitate visualization and by HPLC of fresh and stored samples. Table 1 provides a comparison of polymers that include PTA solubility in an assay buffer, such as Tris buffer, pH 9.5.

HRP-azine system = target: T2, HRP-azine system (Armoracia rusticana, UniProt P00433); assay: Optimisation of formulation components (radical enhancer, nucleophilic reagent, oxidant) on western blot; assay type: biochemical; conditions: for preferred concentration in working solution: by rate of visualization and/or number of colored bands on western blot, PTAS tested 2 to 30 mM, MORP 0 to 20 mM; for effect of oxidant on azine oxidization and formation of colored and fluorescent compounds: at certain concentrations, HRP-azine system
T2 sequence (P00433 31-338): T1 sequence (P00433 31-338)
Description: The optimal concentrations of the cation radical enhancer, nucleophilic reagent, solvent system and oxidant in the formulation were also tested. Water soluble azine, particularly 3-(10′-phenothiazinyl)propane-1-sulfonate (PTAS) was tested at various concentrations from 2 to 30 mM in a working solution. The effects were evaluated using the rate (speed) of visualization and the number of colored band on western blot. The preferred concentration of PTAS was 18 mM. Other water soluble and N-substituted PTA derivatives can also be used in place of PTAS or in combination thereof. The nucleophilic reagent serves as a co-substrate in the detection solution. The nucleophilic reagent can include five or six membered nitrogen heteroaromatic ring compounds. MORP at concentrations from 0 to 20 mM was tested in the formulation. Based on the number of colored bands detected, the preferred concentration was 15 mM MORP in the working solution.
Stable oxidants that are compatible with HRP-azine system are tested. Sodium perborate (NaBO3), Urea-H2O2 and stabilized H2O2 at certain concentrations accelerated azine oxidization and formation of colored and fluorescent compounds.

CN(C)c1ccc2c(c1)Sc1cc(N(C)C)ccc1N2C(=O)c1ccccc1 [BLMB]
enhancement in sensitivity compared to SuperSignal West Femto Chemiluminescence Substrate ([1]; BLMB formulation with dextran sulfate, DMAP, HNA, citric buffer, NaBO3, final pH 5.0): 2˜4 fold

OCCO [Ethylene Glycol (EG), Ethylene Glycol]
Appearance of solution [2]: cloudy
Appearance of PTA solution after overnight storage at room temperature [2]: Precipitation,
PTA concentration given with appearance of PTA solution after overnight storage at room temperature ([2]; PTA in assay buffer with the named solubilizer): 0.5 mM

c1cc(N2CCOCC2)ccn1 [MORP, 4-morpholinopyridine]
preferred concentration in working solution (HRP-azine system): 15 mM

c1ccc2c(c1)Nc1ccccc1S2 [PTA, 10H-phenothiazine]
Appearance of solution [2]: cloudy
Appearance of PTA solution after overnight storage at room temperature [2]: Precipitate,
PTA concentration given with appearance of PTA solution after overnight storage at room temperature ([2]; assay buffer, no solubilizer added): 0.00015 mM
PTA concentration with the highest sensitivity in working solution ([1]; LOD of Erk protein by chemifluorescence at 700 nm, 0.65, 0.35, 0.15 mM PTA compared): 0.35 mM

O=S(=O)([O-])CCCN1c2ccccc2Sc2ccccc21.[Na+] [PTAS, sodium 3-(phenothiazine-10-yl)propane-1-sulfonate]
preferred concentration in working solution (HRP-azine system): 18 mM

NC(N)=O.OO [Urea-H2O2, urea-hydrogen peroxide]
effect of oxidant on azine oxidization and formation of colored and fluorescent compounds (HRP-azine system): accelerated

OO [stabilized H2O2, hydrogen peroxide]
effect of oxidant on azine oxidization and formation of colored and fluorescent compounds (HRP-azine system): accelerated

Sodium perborate
effect of oxidant on azine oxidization and formation of colored and fluorescent compounds (HRP-azine system): accelerated

From patent publication US9632034B2, “Fluorogenic and chromogenic substrate” (LI-COR, Inc., priority 2015, dated 2017)
